Assay results taken from patent US10702506B2, “Small molecule inhibitors of pendrin ion exchange and pharmaceutical compositions” (THE REGENTS OF THE UNIVERSITY OF CALIFORNIA, priority 2016, dated 2020).

Molecular target: T1, murine pendrin (Mus musculus, UniProt Q9R155)
T1 construct: expressed in transfected cells
T1 sequence (Q9R155 1-780): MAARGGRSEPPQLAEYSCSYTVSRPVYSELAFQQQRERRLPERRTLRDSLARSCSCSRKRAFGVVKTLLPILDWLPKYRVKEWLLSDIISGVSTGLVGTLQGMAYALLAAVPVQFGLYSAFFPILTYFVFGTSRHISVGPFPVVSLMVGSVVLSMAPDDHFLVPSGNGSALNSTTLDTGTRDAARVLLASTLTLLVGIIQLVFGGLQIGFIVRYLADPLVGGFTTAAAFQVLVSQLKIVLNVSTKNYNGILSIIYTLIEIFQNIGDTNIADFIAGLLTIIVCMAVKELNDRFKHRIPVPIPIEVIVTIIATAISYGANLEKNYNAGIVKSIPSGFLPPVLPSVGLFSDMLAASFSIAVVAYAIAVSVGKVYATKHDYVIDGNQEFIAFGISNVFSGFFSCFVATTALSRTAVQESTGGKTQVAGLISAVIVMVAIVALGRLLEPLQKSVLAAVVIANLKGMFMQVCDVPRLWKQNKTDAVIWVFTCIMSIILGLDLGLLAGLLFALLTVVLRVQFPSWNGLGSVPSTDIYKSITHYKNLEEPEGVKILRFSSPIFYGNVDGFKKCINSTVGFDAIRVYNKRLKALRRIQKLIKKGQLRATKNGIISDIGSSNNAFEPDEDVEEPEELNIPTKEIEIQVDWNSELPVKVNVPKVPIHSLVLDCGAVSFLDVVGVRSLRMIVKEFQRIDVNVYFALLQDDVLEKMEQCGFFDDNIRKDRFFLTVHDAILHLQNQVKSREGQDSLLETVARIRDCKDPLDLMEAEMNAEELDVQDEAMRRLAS
Assay: BCECF intracellular pH assay of Cl−/HCO3− exchange in FRT cells expressing murine pendrin
Type: cell-based
Procedure: Pendrin-mediated exchange of Cl^− with SCN^−, I^− or NO3^− was measured from the kinetics of YFP fluorescence quenching in a BMG FLUOstar Omega platereader. Pendrin/YFP-expressing FRT cells were washed in PBS and transport measured following a 70-mM gradient of SCN^−, I^− or NO3^−. Pendrin-mediated Cl^−/HCO3^− exchange was measured from the kinetics of cytoplasmic pH (pHi) using BCECF-AM (Invitrogen). Pendrin-expressing FRT cells in HCO3^−-containing buffer (in mM: 120 NaCl, 5 KCl, 1 CaCl2), 1 MgSO4, 10 glucose, 5 Hepes, 25 NaHCO3^−; pH 7.4; 95% O2/5% CO2 equilibrated) were exposed to a Cl^−-free buffer (gluconate replacing Cl^−) to drive Cl^− efflux and HCO3^− influx.
Pendrin-mediated Cl^−/HCO3^− exchange was measured from the kinetics of intracellular pH, using BCECF fluorescence as a cytoplasmic pH sensor, following extracellular addition of gluconate in HCO3^−/CO2-containing buffer to drive Cl-efflux, HCO3^− influx, and consequent cytoplasmic alkalinization (FIG. 7D). […] YFP-based fluorescence quenching assays in COS-7 cells were established to measure AE1 (Slc4a1), CLD (Slc26a3) and NCC (Slc12a3) activities. […] A YFP-V163S fluorescence quenching assay in FRT cells was used to measure NKCC1 activity in which cells equilibrated gluconate-substituted PBS buffer were exposed to a Cl^−-containing solution containing 75 mM Na^+ and 75 mM K^+.

Q: `Cc1n[nH]c(-c2cc(S(=O)(=O)NC3CCCc4ccccc43)c(C)s2)c1C` (stereo not shown) [PDSinh-C01] was tested. Which IC50 did it give?
A: ~1200 nM
